In US20250145665A1, “MACROCYCLIC PEPTIDES USEFUL AS MODULATORS OF TNF ALPHA” (Bristol-Myers Squibb Company, priority 2023, published 2025):
Starred links: 1 amine or outer side, 2 acyl side, 3 side chain; linkers in the order of their positions; H or OH if unused. Positions of bridges follow the written chain, without caps; N, C: chain ends. Non-standard residues stand in square brackets, D forms with d. Residues, ends and D or L forms follow the SMILES beside them. *: point of attachment. Bip(4'-NHCO-C6H4-3-CH2COOH) = N[C@@H](Cc1ccc(-c2ccc(NC(=O)c3cccc(CC(=O)O)c3)cc2)cc1)C(=O)O; Bip(4'-NHCO-C6H4-4-CH2COOH) = N[C@@H](Cc1ccc(-c2ccc(NC(=O)c3ccc(CC(=O)O)cc3)cc2)cc1)C(=O)O; X5 = Cn1nc(C(=O)Nc2ccc(-c3ccc(C[C@H](N[*:1])C(=O)[*:2])cc3)cc2)c2ccccc21; Bip(4'-NH) = O=C([C@H](Cc1ccc(-c2ccc(N[*:3])cc2)cc1)N[*:1])[*:2]; dArg(ω-(3-HO-benzyl)) = N=C(NCCC[C@@H](N)C(=O)O)NCc1cccc(O)c1; Bip(4'-CONHMe) = CNC(=O)c1ccc(-c2ccc(C[C@H](N)C(=O)O)cc2)cc1; dArg(ω-Bn(3-CH2OH)) = N=C(NCCC[C@@H](N)C(=O)O)NCc1cccc(CO)c1; Indazole3carbonyl(1-CH2COOH) = O=C(O)Cn1nc(C(=O)*)c2ccccc21; Bip(4'-COOH) = N[C@@H](Cc1ccc(-c2ccc(C(=O)O)cc2)cc1)C(=O)O; Bip(4'-NHAc) = CC(=O)Nc1ccc(-c2ccc(C[C@H](N)C(=O)O)cc2)cc1; X30 = N#Cc1ccc(CCNC(=N)NCCC[C@@H](N[*:1])C(=O)[*:2])cc1; Pro(trans-4-Ph) = O=C(O)[C@@H]1C[C@@H](c2ccccc2)CN1; Ala(imidazol-2-yl) = N[C@@H](Cc1ncc[nH]1)C(=O)O; Ala(morpholin-4-yl) = N[C@@H](CN1CCOCC1)C(=O)O; Benzoyl(3-OCH2COOH) = O=C(O)COc1cccc(C(=O)*)c1; Bip = N[C@@H](Cc1ccc(-c2ccccc2)cc1)C(=O)O; h4Pal = N[C@@H](CCc1ccncc1)C(=O)O; Tic = O=C(O)[C@@H]1Cc2ccccc2CN1; 2Thi = N[C@@H](Cc1cccs1)C(=O)O; Cha = N[C@@H](CC1CCCCC1)C(=O)O; X62 = COC(=O)Cc1cccc(C(=O)*)c1; Chg = N[C@H](C(=O)O)C1CCCCC1; Tle = CC(C)(C)[C@H](N)C(=O)O; Sar = CNCC(=O)O

These compounds were tested against TNFα (Homo sapiens, UniProt P01375) (assay: TNF-Induced HEK-Blue Assay). Details: not given.
Assay type: cell-based

TNFα, sequence (P01375 77-233 limits assumed): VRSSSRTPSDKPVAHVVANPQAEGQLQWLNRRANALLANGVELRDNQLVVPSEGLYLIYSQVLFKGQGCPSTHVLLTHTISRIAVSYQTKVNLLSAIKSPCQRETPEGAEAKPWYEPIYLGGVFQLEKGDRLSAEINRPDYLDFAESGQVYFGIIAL

Compound | IC50 [nM]
CC(C)C[C@@H]1NC(=O)[C@H](CCCNC(=N)N)NC(=O)[C@H](C(C)C)NC(=O)[C@@H]2CCCN2C(=O)[C@H](C(C)C)NC(=O)[C@@H](CCCNC(=N)NCCc2ccc(C#N)cc2)NC(=O)[C@H](CC(=O)O)NC(=O)[C@@H]2CCCN2C(=O)CN(C)C(=O)[C@H](Cc2ccc(-c3ccc(NC(=O)c4nn(CC(=O)O)c5ccccc45)cc3)cc2)NC(=O)[C@H](Cc2ccc(-c3ccccc3)cc2)NC(=O)[C@H](CN2CCOCC2)NC(=O)CSC[C@@H](C(=O)NCC(N)=O)NC1=O [Example 428] ({CH2CO}-[Ala(morpholin-4-yl)][Bip][Bip(4'-NH)](Indazole3carbonyl(1-CH2COOH))[Sar]PD[X30]VPVRLCG-NH2; thioether N-13) | 50 to 200
CC[C@H](C)[C@@H]1NC(=O)[C@@H](CCCNC(=N)N)NC(=O)[C@H](CC(=O)O)NC(=O)[C@H](Cc2cnc[nH]2)NC(=O)CN(C)C(=O)[C@H](Cc2ccc(-c3ccc(NC(=O)c4cccc(CC(=O)OC)c4)cc3)cc2)NC(=O)[C@H](Cc2ccc(-c3ccccc3)cc2)NC(=O)[C@H](C(C)(C)C)NC(=O)CSC[C@@H](C(=O)NCC(N)=O)NC(=O)[C@H](CC(C)C)NC(=O)[C@H](Cc2c[nH]cn2)NC(=O)[C@H](C(C)C)NC(=O)[C@@H]2CCCN2C1=O [Example 502] ({CH2CO}-[Tle][Bip][Bip(4'-NH)](X62)[Sar]HD[dR]IPVHLCG-NH2; thioether N-13) | < 50

Same assay, conditions: HEK-Blue-CD40L cells, NF-kB-driven secreted alkaline phosphatase reporter; TNFα 0.5 ng/ml; 18 h; read-out: TNF induced HEK-Blue assay IC50 value

Compound | IC50 [nM]
CC(C)C[C@@H]1NC(=O)[C@H](Cc2ccc(O)cc2)NC(=O)[C@H](C(C)C)NC(=O)[C@@H]2CCCN2C(=O)[C@H](C(C)C)NC(=O)[C@@H](CCCNC(=N)N)NC(=O)[C@H](CC(=O)O)NC(=O)[C@H](Cc2ccc(O)cc2)NC(=O)CN(C)C(=O)[C@H](Cc2ccc(-c3ccccc3)cc2)NC(=O)[C@H](Cc2ccc(-c3ccc(C(=O)O)cc3)cc2)NC(=O)[C@H](CCc2ccncc2)NC(=O)CSC[C@@H](C(=O)NCC(N)=O)NC1=O [Example 186] ({CH2CO}-[h4Pal][Bip(4'-COOH)][Bip][Sar]YD[dR]VPVYLCG-NH2; thioether N-13) | 50 to 200
CC(=O)Nc1ccc(-c2ccc(C[C@@H]3NC(=O)[C@H](Cc4ccc(-c5ccccc5)cc4)NC(=O)[C@H](CN4CCOCC4)NC(=O)CSC[C@@H](C(=O)NCC(N)=O)NC(=O)[C@H](CC(C)C)NC(=O)[C@H](CCCNC(=N)N)NC(=O)[C@H](C(C)C)NC(=O)[C@@H]4CCCN4C(=O)[C@H](C(C)C)NC(=O)[C@@H](CCCNC(=N)N)NC(=O)[C@H](CC(=O)O)NC(=O)[C@H](Cc4cnc[nH]4)NC(=O)CN(C)C3=O)cc2)cc1 [Example 212] ({CH2CO}-[Ala(morpholin-4-yl)][Bip][Bip(4'-NHAc)][Sar]HD[dR]VPVRLCG-NH2; thioether N-13) | < 50
CC(C)C[C@@H]1NC(=O)[C@H](CCCNC(=N)N)NC(=O)[C@H](C(C)C)NC(=O)[C@H](C(C)C)NC(=O)[C@H](C(C)C)NC(=O)[C@H](CCCNC(=N)N)NC(=O)[C@H](CC(=O)O)NC(=O)[C@@H]2CCCN2C(=O)CN(C)C(=O)[C@H](Cc2ccc(-c3ccccc3)cc2)NC(=O)[C@H](Cc2ccc(-c3ccccc3)cc2)NC(=O)[C@H](Cc2ccccc2)NC(=O)CSC[C@@H](C(=O)NCC(N)=O)NC1=O [Example 17] ({CH2CO}-F[Bip][Bip][Sar]PDRVVVRLCG-NH2; thioether N-13) | 200 to 2000
CC[C@H](C)[C@@H]1NC(=O)[C@@H](CCCNC(=N)N)NC(=O)[C@H](CC(=O)O)NC(=O)[C@H](Cc2cnc[nH]2)NC(=O)CN(C)C(=O)[C@H](Cc2ccc(-c3ccc(NC(C)=O)cc3)cc2)NC(=O)[C@H](Cc2ccc(-c3ccc(C(=O)O)cc3)cc2)NC(=O)[C@H](CC2CCCCC2)NC(=O)CSC[C@@H](C(=O)NCC(N)=O)NC(=O)[C@H](CC(C)C)NC(=O)[C@H](Cc2cnc[nH]2)NC(=O)[C@H](C(C)C)NC(=O)[C@@H]2CCCN2C1=O [Example 257] ({CH2CO}-[Cha][Bip(4'-COOH)][Bip(4'-NHAc)][Sar]HD[dR]IPVHLCG-NH2; thioether N-13) | < 50
CC(C)C[C@@H]1NC(=O)[C@H](CCCNC(=N)N)NC(=O)[C@H](C(C)C)NC(=O)[C@@H]2CCCN2C(=O)[C@H](C(C)C)NC(=O)[C@H](CCCNC(=N)N)NC(=O)[C@H](CC(=O)O)NC(=O)[C@@H]2C[C@@H](c3ccccc3)CN2C(=O)CN(C)C(=O)[C@H](Cc2ccc(-c3ccccc3)cc2)NC(=O)[C@H](Cc2ccc(-c3ccccc3)cc2)NC(=O)[C@H](CN2CCOCC2)NC(=O)CSC[C@@H](C(=O)NCC(N)=O)NC1=O [Example 97] ({CH2CO}-[Ala(morpholin-4-yl)][Bip][Bip][Sar][Pro(trans-4-Ph)]DRVPVRLCG-NH2; thioether N-13) | 50 to 200
CC(C)C[C@@H]1NC(=O)[C@H](CCCNC(=N)N)NC(=O)[C@H](C(C)C)NC(=O)[C@@H]2CCCN2C(=O)[C@H](C(C)C)NC(=O)[C@@H](CCCNC(=N)NCc2cccc(CO)c2)NC(=O)[C@H](CC(=O)O)NC(=O)[C@@H]2CCCN2C(=O)CN(C)C(=O)[C@H](Cc2ccc(-c3ccc(NC(=O)c4nn(C)c5ccccc45)cc3)cc2)NC(=O)[C@H](Cc2ccc(-c3ccccc3)cc2)NC(=O)[C@H](CN2CCOCC2)NC(=O)CSC[C@@H](C(=O)NCC(N)=O)NC1=O [Example 448] ({CH2CO}-[Ala(morpholin-4-yl)][Bip][X5][Sar]PD[dArg(ω-Bn(3-CH2OH))]VPVRLCG-NH2; thioether N-13) | < 50

More lines, now with the values ahead:

IC50 [nM] | Compound
< 50 | CC[C@H](C)[C@@H]1NC(=O)[C@@H]2CCCN2C(=O)[C@H]([C@@H](C)CC)NC(=O)[C@@H](CCCNC(=N)N)NC(=O)[C@H](CC(=O)O)NC(=O)[C@H](Cc2ccc(O)cc2)NC(=O)CN(C)C(=O)[C@H](Cc2ccc(-c3ccc(NC(C)=O)cc3)cc2)NC(=O)[C@H](Cc2ccc(-c3ccccc3)cc2)NC(=O)[C@H](C(C)(C)C)NC(=O)CSC[C@@H](C(=O)NCC(N)=O)NC(=O)[C@H](CC(C)C)NC(=O)[C@H](Cc2ccccc2)NC1=O [Example 296] ({CH2CO}-[Tle][Bip][Bip(4'-NHAc)][Sar]YD[dR]IPIFLCG-NH2; thioether N-13)
< 50 | CC(C)C[C@@H]1NC(=O)[C@H](Cc2cnc[nH]2)NC(=O)[C@H](C(C)C)NC(=O)[C@@H]2CCCN2C(=O)[C@H](C(C)C)NC(=O)[C@@H](CCCNC(=N)N)NC(=O)[C@H](CC(=O)O)NC(=O)[C@H](Cc2cnc[nH]2)NC(=O)CN(C)C(=O)[C@H](Cc2ccc(-c3ccc(NC(=O)c4ccc(CC(=O)O)cc4)cc3)cc2)NC(=O)[C@H](Cc2ccc(-c3ccccc3)cc2)NC(=O)[C@H](CC2CCCCC2)NC(=O)CSC[C@@H](C(=O)NCC(N)=O)NC1=O [Example 526] ({CH2CO}-[Cha][Bip][Bip(4'-NHCO-C6H4-4-CH2COOH)][Sar]HD[dR]VPVHLCG-NH2; thioether N-13)
< 50 | CC[C@H](C)[C@@H]1NC(=O)[C@@H](CCCNC(=N)N)NC(=O)[C@H](CC(=O)O)NC(=O)[C@@H]2CCCN2C(=O)CN(C)C(=O)[C@H](Cc2ccc(-c3ccc(NC(=O)c4cccc(CC(=O)O)c4)cc3)cc2)NC(=O)[C@H](Cc2ccc(-c3ccc(C(=O)O)cc3)cc2)NC(=O)[C@H](CN2CCOCC2)NC(=O)CSC[C@@H](C(=O)NCC(N)=O)NC(=O)[C@H](CC(C)C)NC(=O)[C@H](Cc2cnc[nH]2)NC(=O)[C@H](C(C)C)NC(=O)[C@@H]2CCCN2C1=O [Example 578] ({CH2CO}-[Ala(morpholin-4-yl)][Bip(4'-COOH)][Bip(4'-NHCO-C6H4-3-CH2COOH)][Sar]PD[dR]IPVHLCG-NH2; thioether N-13)
200 to 2000 | CC(=O)Nc1ccc(-c2ccc(C[C@@H]3NC(=O)[C@H](Cc4ccc(-c5ccc(C(=O)O)cc5)cc4)NC(=O)[C@H](CN4CCOCC4)NC(=O)CSC[C@@H](C(=O)NCC(N)=O)NC(=O)[C@H](CC(C)C)NC(=O)[C@H](Cc4cccs4)NC(=O)[C@H](C4CCCCC4)NC(=O)[C@@H]4CCCN4C(=O)[C@H](C(C)C)NC(=O)[C@@H](CCCNC(=N)N)NC(=O)[C@H](CC(=O)O)NC(=O)[C@@H]4CCCN4C(=O)CN(C)C3=O)cc2)cc1 [Example 314] ({CH2CO}-[Ala(morpholin-4-yl)][Bip(4'-COOH)][Bip(4'-NHAc)][Sar]PD[dR]VP[Chg][2Thi]LCG-NH2; thioether N-13)
< 50 | CC[C@H](C)[C@@H]1NC(=O)[C@@H](CCCNC(=N)N)NC(=O)[C@H](CC(=O)O)NC(=O)[C@@H]2CCCN2C(=O)CN(C)C(=O)[C@H](Cc2ccc(-c3ccc(NC(=O)c4cccc(OCC(=O)O)c4)cc3)cc2)NC(=O)[C@H](Cc2ccc(-c3ccc(C(=O)O)cc3)cc2)NC(=O)[C@H](C(C)(C)C)NC(=O)CSC[C@@H](C(=O)NCC(N)=O)NC(=O)[C@H](CC(C)C)NC(=O)[C@H](Cc2cnc[nH]2)NC(=O)[C@H](C(C)C)NC(=O)[C@@H]2CCCN2C1=O [Example 574] ({CH2CO}-[Tle][Bip(4'-COOH)][Bip(4'-NH)](Benzoyl(3-OCH2COOH))[Sar]PD[dR]IPVHLCG-NH2; thioether N-13)
< 50 | CC[C@H](C)[C@@H]1NC(=O)[C@@H](CCCNC(=N)NCc2cccc(O)c2)NC(=O)[C@H](CC(=O)O)NC(=O)[C@H](Cc2cnc[nH]2)NC(=O)CN(C)C(=O)[C@H](Cc2ccc(-c3ccc(NC(=O)c4cccc(OCC(=O)O)c4)cc3)cc2)NC(=O)[C@H](Cc2ccc(-c3ccc(C(=O)O)cc3)cc2)NC(=O)[C@H](CC2CCCCC2)NC(=O)CSC[C@@H](C(=O)NCC(N)=O)NC(=O)[C@H](CC(C)C)NC(=O)[C@H](Cc2ncc[nH]2)NC(=O)[C@H](C(C)C)NC(=O)[C@@H]2Cc3ccccc3CN2C1=O [Example 564] ({CH2CO}-[Cha][Bip(4'-COOH)][Bip(4'-NH)](Benzoyl(3-OCH2COOH))[Sar]HD[dArg(ω-(3-HO-benzyl))]I[Tic]V[Ala(imidazol-2-yl)]LCG-NH2; thioether N-13)
< 50 | CC[C@H](C)[C@@H]1NC(=O)[C@@H](CCCNC(=N)N)NC(=O)[C@H](CC(=O)O)NC(=O)[C@H](Cc2cnc[nH]2)NC(=O)CN(C)C(=O)[C@H](Cc2ccc(-c3ccc(NC(=O)c4cccc(CC(=O)O)c4)cc3)cc2)NC(=O)[C@H](Cc2ccc(-c3ccc(C(=O)NC)cc3)cc2)NC(=O)[C@H](CC2CCCCC2)NC(=O)CSC[C@@H](C(=O)NCC(N)=O)NC(=O)[C@H](CC(C)C)NC(=O)[C@H](Cc2cnc[nH]2)NC(=O)[C@H](C(C)C)NC(=O)[C@@H]2CCCN2C1=O [Example 527] ({CH2CO}-[Cha][Bip(4'-CONHMe)][Bip(4'-NHCO-C6H4-3-CH2COOH)][Sar]HD[dR]IPVHLCG-NH2; thioether N-13)
